Series [1] relates to proteins of Mit (mitochondrial fraction of liver homogenate). Nature of the series: Covalent adduct formation of NSAIDs-AG with proteins of mitochondrial fraction (Mit). In kind it is binding, rat. The note with it: 180 μM, 6 h; for covalent adduct formation with Mit proteins: protein 1 mg/mL, 37 °C.
In a further series the target is T1, UGT2B7 (Homo sapiens, UniProt P16662).
T1 construct: purchased Corning, Inc
T1 sequence (P16662 24-529): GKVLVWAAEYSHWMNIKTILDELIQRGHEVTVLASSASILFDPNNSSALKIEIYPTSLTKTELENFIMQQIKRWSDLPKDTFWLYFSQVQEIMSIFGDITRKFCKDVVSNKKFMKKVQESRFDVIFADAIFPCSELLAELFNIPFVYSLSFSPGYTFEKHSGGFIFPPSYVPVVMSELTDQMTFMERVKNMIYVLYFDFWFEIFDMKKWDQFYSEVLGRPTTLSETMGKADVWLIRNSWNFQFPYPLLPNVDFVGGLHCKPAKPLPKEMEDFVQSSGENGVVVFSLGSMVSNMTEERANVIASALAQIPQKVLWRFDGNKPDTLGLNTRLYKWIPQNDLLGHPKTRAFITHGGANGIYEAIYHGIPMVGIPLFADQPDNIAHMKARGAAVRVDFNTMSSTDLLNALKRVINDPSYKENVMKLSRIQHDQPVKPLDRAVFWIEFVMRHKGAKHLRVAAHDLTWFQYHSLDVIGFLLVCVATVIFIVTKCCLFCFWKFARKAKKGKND
Nature of the series: Covalent adduct formation of NSAIDs-AG with UGT2B7. It is filed as binding. The note with it: 180 μM, UGT 3.4 μM, 6 h; for covalent adduct formation with UGT2B7: 37 °C. The method, then:
(§1) The concentrations of UGT were set at 3.4 μM by the preliminary experiments on the linearity of covalent adduct formation. The covalent adduct formation of NSAIDs-AG with organelle proteins and UGT was determined according to previous reports on NSAIDs-AG with albumin with some modifications. After a deproteinization of the reaction mixture, methanol/diethyl ether (3:1) was added to the pellet. […] The concentrations of the parent NSAIDs were measured using liquid chromatography-tandem mass spectrometry (LC-MS/MS). Aliquots of 10 μL were injected into the LC-MS/MS system. The LC-MS/MS equipment consisted of an LC system (UltiMate 3000 series, Thermo Fisher Scientific, Inc.) and TSQ Endura Triple Quadrupole Mass Spectrometer with electrospray ionization (Thermo Fisher Scientific, Inc.). Finnigan Xcalibur software (Thermo Fisher Scientific, Inc.) was used for data recording and analysis. Analysis was further performed using a reversed-phase column (COSMOSIL 5C18-MSII, 2.0 mm × 150 mm, 5 μm; Nacalai Tesque, Inc.). The column temperature was set to 40 °C, and the autosampler was maintained at 10 °C. The mobile phase (A; 30% methanol in 8.5 mM ammonium formate and 0.0075% formic acid, and B; 90% methanol in 8.5 mM ammonium formate and 0.0075% formic acid) was pumped at a flow rate of 0.2 mL/min. The initial mobile phase composition was maintained at 30% mobile phase B for 1 min, changed linearly to 90% mobile phase B from 1 to 8 min, maintained for 1 min, returned to 30% mobile phase B from 9 to 10 min, and maintained for 1 min for chromatographic column equilibrium. The MS scan was operated in positive ionization mode for DIC, MEF, ZOM, KET, and NAP, or negative ionization mode, for FLU. The conditions for electrospray ionization were set at 3500 V spray voltage for positive ionization mode and 2500 V spray voltage for negative ionization mode at 400 °C capillary temperature, and 300 °C vaporizer temperature with 40 arbitrary units of nitrogen sheath gas and 10 arbitrary units of auxiliary gas. The MS scan was operated in the positive or negative ionization mode. The selected reaction monitoring (SRM) mode was used, with argon as the collision gas at 1.5 mTorr. The mass resolution was set at 0.7 full-width at half-height (unit resolution). SRM transitions (precursor and product ions) were mass to charge ratios of (m/z) 296 > 214 for DIC (positive ionization mode), 294 > 250 for DIC (negative ionization mode), 242 > 224 for MEF, 292 > 139 for ZOM, 243 > 198 for R- and S-FLU, 255 > 209 for R- and S-KET, 231 > 185 for R- and S-NAP, and 302 > 220 for DIC-d4. The collision energies were 15 V for DIC (negative ionization mode), ZOM, MEF, FLU, KET, and NAP; 35 V for DIC (positive ionization mode); and DIC-d4. The concentrations of NSAIDs were determined from a single-point calibration in every assay for NSAIDs after confirmation of linearity between area and concentrations of NSAIDs.

Series [2] relates to proteins of Cyt (cytosolic fraction of liver homogenate). Nature of the series: Covalent adduct formation of NSAIDs-AG with proteins of cytosolic fraction (Cyt). In kind it is binding, rat. The note with it: 180 μM, 6 h; for covalent adduct formation with Cyt proteins: protein 1 mg/mL, 37 °C.
In another series the target is T2, UGT1A9 (Homo sapiens, UniProt O60656).
T2 construct: purchased Corning, Inc
T2 sequence (O60656 26-530): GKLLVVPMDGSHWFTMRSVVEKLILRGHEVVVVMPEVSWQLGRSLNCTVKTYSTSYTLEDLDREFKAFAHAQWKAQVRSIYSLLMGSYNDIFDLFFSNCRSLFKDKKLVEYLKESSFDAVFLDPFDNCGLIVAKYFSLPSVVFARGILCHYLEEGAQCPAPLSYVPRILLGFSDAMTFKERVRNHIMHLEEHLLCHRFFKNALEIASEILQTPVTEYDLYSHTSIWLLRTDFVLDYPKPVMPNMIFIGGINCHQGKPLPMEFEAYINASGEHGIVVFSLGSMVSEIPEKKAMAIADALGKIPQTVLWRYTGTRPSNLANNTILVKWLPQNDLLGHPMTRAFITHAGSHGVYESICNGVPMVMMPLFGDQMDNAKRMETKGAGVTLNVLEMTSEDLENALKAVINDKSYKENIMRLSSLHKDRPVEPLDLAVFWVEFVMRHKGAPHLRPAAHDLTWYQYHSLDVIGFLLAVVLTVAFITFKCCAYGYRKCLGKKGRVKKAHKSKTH
The series is described as follows: Covalent adduct formation of NSAIDs-AG with UGT1A9. It is filed as binding. The note with it: 180 μM, UGT 3.4 μM, 6 h. The method, then:
as §1, with “The conditions for electrospray ionization were set at 3500 V spray voltage for positive ionization mode and 2500 V spray voltage for negative ionization mode at 400 °C capillary temperature, and 300 °C vaporizer temperature with 40 arbitrary units of nitrogen sheath gas and 10 arbitrary units of auxiliary gas. The MS scan was operated in the positive or negative ionization mode. The selected reaction monitoring (SRM) mode was used, with argon as the collision gas at 1.5 mTorr. The mass resolution was set at 0.7 full-width at half-height (unit resolution). SRM transitions (precursor and product ions) were mass to charge ratios of (m/z) 296 > 214 for DIC (positive ionization mode), 294 > 250 for DIC (negative ionization mode), 242 > 224 for MEF, 292 > 139 for ZOM, 243 > 198 for R- and S-FLU, 255 > 209 for R- and S-KET, 231 > 185 for R- and S-NAP, and 302 > 220 for DIC-d4. The collision energies were 15 V for DIC (negative ionization mode), ZOM, MEF, FLU, KET, and NAP; 35 V for DIC (positive ionization mode); and DIC-d4.” left out

On the set-up of series [3]: method as in PMID 20606003, PMID 1673415. The note with it: phosphate buffers (pH 7.4); cited from earlier work.
For series [4], the system named is proteins of Nuc (nuclear fraction of liver homogenate). The series is described as follows: Covalent adduct formation of NSAIDs-AG with proteins of nuclear fraction (Nuc). It is filed as binding, rat. The note with it: 180 μM, 6 h; for covalent adduct formation with Nuc proteins: protein 1 mg/mL, 37 °C.
In series [5] the test system is proteins of Mic (microsomal fraction of liver homogenate). The series is described as follows: Covalent adduct formation of NSAIDs-AG with proteins of microsomal fraction (Mic). The note with it: for covalent adduct formation with Mic proteins: protein 1 mg/mL.
The target in the next series is T3, UGT2B4 (Homo sapiens, UniProt P06133).
T3 construct: purchased Corning, Inc
T3 sequence (P06133 24-528): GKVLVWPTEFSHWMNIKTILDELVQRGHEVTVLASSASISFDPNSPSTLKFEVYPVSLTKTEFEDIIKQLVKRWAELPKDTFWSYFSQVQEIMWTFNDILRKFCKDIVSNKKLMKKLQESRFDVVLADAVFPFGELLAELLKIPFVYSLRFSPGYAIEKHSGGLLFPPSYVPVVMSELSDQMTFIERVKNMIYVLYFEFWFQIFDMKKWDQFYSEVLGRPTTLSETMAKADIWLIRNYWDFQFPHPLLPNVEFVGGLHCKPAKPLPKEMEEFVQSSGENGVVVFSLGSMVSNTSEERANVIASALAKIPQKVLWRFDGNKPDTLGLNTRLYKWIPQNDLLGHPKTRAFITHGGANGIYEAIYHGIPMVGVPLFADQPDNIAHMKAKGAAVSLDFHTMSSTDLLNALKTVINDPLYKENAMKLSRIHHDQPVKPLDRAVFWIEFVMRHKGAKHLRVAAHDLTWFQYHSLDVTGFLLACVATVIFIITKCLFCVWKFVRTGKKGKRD
Nature of the series: Covalent adduct formation of NSAIDs-AG with UGT2B4. It is filed as binding. The note with it: R vs S diastereomer; 180 μM, UGT 3.4 μM, 6 h. As for the experimental part: as §1

Take `O=C(Cc1ccccc1Nc1c(Cl)cccc1Cl)O[C@@H]1O[C@H](C(=O)O)[C@@H](O)[C@H](O)[C@H]1O` [DIC-AG]: the “covalent adducts with organelle proteins (Mit) relative to R-KET-AG” value in series [1] (1 mg/mL) is “approximately twice as high”. Besides, the “covalent adduct formation with Mit proteins” value in series [1] is recorded as “formed covalent adducts”. On UGT2B7, the “amounts of covalent adducts with UGT2B7 compared with UGT1A9” value is “significantly lower amounts of covalent adducts”, the “capacity to form covalent adducts with UGT2B7 relative to mefenamic acid-AG” value is recorded as “approximately 10 times” and the “covalent adduct formation with UGT2B7” value is “higher amounts of covalent adducts”. The “covalent adducts with organelle proteins (Cyt) relative to R-KET-AG” value in series [2] (1 mg/mL) is reported as “approximately twice as high”. Moreover, in series [2], the “covalent adduct formation with Cyt proteins” value is given as “formed covalent adducts”. Moreover, the “capacity to form covalent adducts with UGT1A9 relative to mefenamic acid-AG” value at UGT1A9 is recorded as “approximately 10 times”. Besides, the half-lives in buffers entry in series [3] is given as “relatively short half-lives”. Besides, the “covalent adducts with organelle proteins (Nuc) relative to R-KET-AG” value in series [4] (1 mg/mL) is “approximately twice as high”. Moreover, the “covalent adduct formation with Nuc proteins” value in series [4] is “formed covalent adducts”. Moreover, the “covalent adducts with organelle proteins (Mic) relative to R-KET-AG” value in series [5] (180 μM, 1 mg/mL, 6 h) is listed as “approximately twice as high”. Moreover, the “covalent adduct formation with Mic proteins” value in series [5] (180 μM, 6 h, 37 °C) is reported as “formed covalent adducts”. The “number of covalent adducts with the proteins of Mic, effect of concentration and incubation time” value in series [5] (DIC-AG 120-600 μM for 6 h, 180 μM for 1-24 h, Mic 1 mg/mL, 37 °C) was “increased in a concentration- and time-dependent manner”.
Turning to `CC(C(=O)O[C@@H]1O[C@H](C(=O)O)[C@@H](O)[C@H](O)[C@H]1O)c1cccc(C(=O)c2ccccc2)c1` (stereo partly shown) [KET-AG], in series [1], the “covalent adduct formation with Mit proteins” value is given as “formed covalent adducts”. In addition, at UGT2B7 (R vs S diastereomer), the “covalent adduct formation with UGT2B7 compared with the other diastereomer” value is recorded as “remarkably stereoselective formation of a covalent adduct”. The “covalent adduct formation with Cyt proteins” value in series [2] is recorded as “formed covalent adducts”. Moreover, at UGT2B4, the “covalent adduct formation with UGT2B4 compared with the other diastereomer” value is recorded as “remarkably stereoselective formation of a covalent adduct”. Also, the “covalent adduct formation with Nuc proteins” value in series [4] is on record as “formed covalent adducts”. In series [5] (180 μM, 6 h, 37 °C), the “covalent adduct formation with Mic proteins” value is recorded as “formed covalent adducts”.
For `COc1ccc2cc(C(C)C(=O)O[C@@H]3O[C@H](C(=O)O)[C@@H](O)[C@H](O)[C@H]3O)ccc2c1` (stereo partly shown) [NAP-AG], the “covalent adduct formation with UGT2B7” value on UGT2B7 is “higher amounts of covalent adducts”. Further, the half-lives in buffers entry in series [3] is reported as “relatively short half-lives”.
